Like-named read-outs stand apart in the source and are kept apart here.
Legend:
[1] = molecular target: CDK4/Cyclin D1 (Homo sapiens (Human), UniProt P11802); experiment: CDK4/Cyclin D1 CHEF assay (Chelation-Enhanced Fluorescence), Ki by Morrison equation; type: biochemical; details: geometric mean, read-out: CDK4/Cyclin D1 GMean Ki
Source text: (§1) In Vitro Purified Enzyme Assays to Determine Potency for CDKs
(§2) CDK4/Cyclin D1 and CDK6/Cylcin D3 CHEF Assay
(§3) The Chelation-Enhanced Fluorescence (CHEF) monitors the phosphorylation state in real time where the level of fluorescence is directly proportional to the amount of phosphorylated substrate. CHEF exploits a synthetic α-amino acid with a side chain bearing an 8-hydroxyquinoline derivative (sulfonamido-oxine, Sox) which, upon coordination to Mg(II), relays information on the phosphorylation state of a proximal serine, threonine or tyrosine residue in peptide-based kinase substrates. Phosphorylation of a specific peptide (Catalog # AQT0258) from AssayQuant Technologies results in an increase in fluorescence at the excitation and emission wavelengths of 360 nm Ex/485 nm Em.
(§4) Examples along with DMSO (negative) and Palbociclib (positive) controls were added to 384-well plates at 100-fold their final concentrations followed by the addition of 10 nM CDK4/Cyclin D1 (LJIC-2007F1) or 10 nM CDK6/Cyclin D3 (LJIC-2009H2) for a 20 minute pre-incubation in assay buffer containing 40 mM HEPES, 1 mM Dithiothreito (DTT, 10 mM MgCl2, 1% Glycerol, 0.1% BSA. Enzyme reactions were initiated by the addition of AssayQuant Technologies peptide and ATP substrates (10 μM CHEF peptide (Catalog # AQT0258), 2 mM ATP) and allowed to proceed for 2 hours followed by fluorescence read of the reaction. Ki determinations were made from a plot of the fractional velocity as a function of inhibitor concentration fit to the Morrison equation with the enzyme concentration as a variable.
(§5) For all the CDK4 and CDK6 assays the Ki constant for compounds were calculated for each enzyme using the Morrison equation. Fractional activity was measured at different compound concentrations, [I] and the data fit to the Morrison equation where [E] is the enzyme concentration, [S] is the ATP concentration, and Kn^App is the apparent Km for ATP for each enzyme under each assay format. With the Ki calculations dependent on the assay conditions for each assay format the resulting Ki becomes assay independent with a strong one to one correlation of Ki values for compounds tested in both assay formats.
(§6) In Table 2, assay data are presented to two (2) significant figures as the geometric mean (Ki) based on the number of replicates listed (Number). A cell having NA means there was no data for that Example in the indicated assay.

[2] = molecular target: CDK6/Cyclin D3 (Homo sapiens (Human), UniProt Q00534); experiment: CDK6/Cyclin D3 CHEF assay (Chelation-Enhanced Fluorescence), Ki by Morrison equation; type: biochemical; details: geometric mean, read-out: CDK6/Cyclin D3: GMean Ki
Source text: as §1, §2, §3, §4, §5, §6

Chain of CDK4/Cyclin D1 (P11802 whole entry): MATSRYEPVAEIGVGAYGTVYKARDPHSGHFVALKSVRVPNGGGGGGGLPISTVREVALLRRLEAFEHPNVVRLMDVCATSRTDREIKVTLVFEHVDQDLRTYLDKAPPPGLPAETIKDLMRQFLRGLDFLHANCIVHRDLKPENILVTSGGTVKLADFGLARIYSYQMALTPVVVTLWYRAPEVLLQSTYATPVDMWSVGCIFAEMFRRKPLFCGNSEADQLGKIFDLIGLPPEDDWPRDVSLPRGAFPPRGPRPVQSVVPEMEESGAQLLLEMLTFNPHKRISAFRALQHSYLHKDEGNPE
Chain of CDK4/Cyclin D1 (P24385 whole entry partner): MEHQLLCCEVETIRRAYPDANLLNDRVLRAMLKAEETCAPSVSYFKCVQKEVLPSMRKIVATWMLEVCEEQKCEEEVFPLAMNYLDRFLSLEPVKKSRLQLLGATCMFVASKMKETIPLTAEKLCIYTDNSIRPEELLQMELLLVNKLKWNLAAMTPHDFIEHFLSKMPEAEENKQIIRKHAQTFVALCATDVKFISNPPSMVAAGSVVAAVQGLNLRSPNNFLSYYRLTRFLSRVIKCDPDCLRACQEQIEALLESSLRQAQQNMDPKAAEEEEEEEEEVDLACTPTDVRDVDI
Chain of CDK6/Cyclin D3 (Q00534 whole entry): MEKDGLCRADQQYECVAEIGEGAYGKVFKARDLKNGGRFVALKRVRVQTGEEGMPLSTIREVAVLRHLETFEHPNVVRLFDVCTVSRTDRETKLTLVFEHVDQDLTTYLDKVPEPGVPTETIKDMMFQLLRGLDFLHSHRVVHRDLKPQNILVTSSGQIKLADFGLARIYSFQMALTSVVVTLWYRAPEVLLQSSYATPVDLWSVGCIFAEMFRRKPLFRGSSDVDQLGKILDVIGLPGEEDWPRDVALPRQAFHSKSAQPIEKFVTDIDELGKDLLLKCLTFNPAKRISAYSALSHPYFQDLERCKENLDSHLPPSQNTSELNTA
Chain of CDK6/Cyclin D3 (P30281 whole entry partner): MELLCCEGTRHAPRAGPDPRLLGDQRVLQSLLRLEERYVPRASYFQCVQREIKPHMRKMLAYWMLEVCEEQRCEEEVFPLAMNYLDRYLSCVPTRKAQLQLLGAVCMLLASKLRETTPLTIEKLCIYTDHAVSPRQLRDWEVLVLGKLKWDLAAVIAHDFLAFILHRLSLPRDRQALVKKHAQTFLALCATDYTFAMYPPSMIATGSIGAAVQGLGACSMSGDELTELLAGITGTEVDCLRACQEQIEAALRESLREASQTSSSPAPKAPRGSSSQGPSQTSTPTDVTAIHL

Row | SMILES | Ki ([1]; tested in CHEF Assay) [nM] | Ki ([2]; tested in CHEF Assay) [nM] | Ki ([1]; tested in both CHEF and MSA) [nM] | Ki ([2]; tested in both CHEF and MSA) [nM]
1 | CC(=O)c1c(C)c2cnc(N[C@@H]3CCOC[C@H]3O)nc2n([C@H]2CCC[C@]2(C)O)c1=O (mixture of isomers) [Example 6, 6-Acetyl-8-[(1S,2S)-2-hydroxy-2-methylcyclopentyl]-2-{[(3S,4R)-3-hydroxytetrahydro-2H-pyran-4-yl]amino}-5-methylpyrido[2,3-d]pyrimidin-7(8H)-one and 6-Acetyl-8-[(1R,2R)-2-hydroxy-2-methylcyclopentyl]-2-{[(3S,4R)-3-hydroxytetrahydro-2H-pyran-4-yl]amino}-5-methylpyrido[2,3-d]pyrimidin-7(8H)-one] | 113 | 190 | – | –
2 | CC(=O)c1c(C)c2cnc(N[C@@H]3CCOC[C@H]3O)nc2n([C@@H]2CCC[C@]2(C)F)c1=O (mixture of isomers) [Example 16, 6-Acetyl-8-[(1R,2S)-2-fluoro-2-methylcyclopentyl]-2-{[(3S,4R)-3-hydroxytetrahydro-2H-pyran-4-yl]amino}-5-methylpyrido[2,3-d]pyrimidin-7(8H)-one and 6-Acetyl-8-[(1S,2R)-2-fluoro-2-methylcyclopentyl]-2-{[(3S,4R)-3-hydroxytetrahydro-2H-pyran-4-yl]amino}-5-methylpyrido[2,3-d]pyrimidin-7(8H)-one] | 2.6 | 5 | – | –
3 | CC(=O)c1c(C)c2cnc(N[C@@H]3CCOC[C@H]3O)nc2n(C2CC2)c1=O [Example 34] | 52 | 85 | – | –
4 | CC(=O)c1c(C)c2cnc(N[C@@H]3CCOC[C@H]3O)nc2n([C@H]2CCC[C@]2(C)O)c1=O (mixture of isomers) [Example 7, 6-Acetyl-8-[(1S,2S)-2-hydroxy-2-methylcyclopentyl]-2-{[(3S,4R)-3-hydroxytetrahydro-2H-pyran-4-yl]amino}-5-methylpyrido[2,3-d]pyrimidin-7(8H)-one and 6-Acetyl-8-[(1R,2R)-2-hydroxy-2-methylcyclopentyl]-2-{[(3S,4R)-3-hydroxytetrahydro-2H-pyran-4-yl]amino}-5-methylpyrido[2,3-d]pyrimidin-7(8H)-one] | 7.2 | 7.7 | – | –
5 | CC(=O)c1c(C)c2cnc(N[C@@H]3CCOC(C)(C)[C@H]3O)nc2n(C2CCCC2)c1=O (mixture of isomers) [Example 9, 6-Acetyl-8-cyclopentyl-2-{[(3S,4R)-3-hydroxy-2,2-dimethyltetrahydro-2H-pyran-4-yl]amino}-5-methylpyrido[2,3-d]pyrimidin-7(8H)-one and 6-Acetyl-8-cyclopentyl-2-{[(3R,4S)-3-hydroxy-2,2-dimethyltetrahydro-2H-pyran-4-yl]amino}-5-methylpyrido[2,3-d]pyrimidin-7(8H)-one] | 2.7 | 6.7 | – | –
6 | COCCN1CC2(CC(n3c(=O)c(C(C)=O)c(C)c4cnc(N[C@@H]5CCOC[C@H]5O)nc43)C2)C1 [Example 28] | 10 | 36 | – | –
7 | CC(=O)c1c(C)c2cnc(N[C@@H]3CCOC[C@H]3O)nc2n([C@H]2CCC[C@]2(C)F)c1=O (single isomer, unassigned) [Example 23] | > 1100 | > 560 | – | –
8 | CC(=O)c1c(C)c2cnc(N[C@@H]3CCOC[C@H]3O)nc2n(C2CC3(CNC3)C2)c1=O [Example 3, 6-Acetyl-8-(2-azaspiro[3.3]heptan-6-yl)-2-{[(3S,4R)-3-hydroxytetrahydro-2H-pyran-4-yl]amino}-5-methylpyrido[2,3-d]pyrimidin-7(8H)-one] | 1.1 | 2.1 | – | –
9 | CC(=O)c1c(C)c2cnc(N[C@@H]3CCOC[C@H]3O)nc2n([C@@H]2CCC[C@@H]2C)c1=O [Example 4, 6-Acetyl-2-{[(3S,4R)-3-hydroxytetrahydro-2H-pyran-4-yl]amino}-5-methyl-8-[(1R,2S)-2-methylcyclopentyl]pyrido[2,3-d]pyrimidin-7(8H)-one] | 1.6 | 2.1 | – | –
10 | CC(=O)c1c(C)c2cnc(N[C@@H]3CCOC[C@H]3O)nc2n(C2CCNCC2)c1=O [Example 32] | 16 | 27 | – | –
11 | CC(=O)c1c(C)c2cnc(N[C@@H]3CCOC[C@H]3O)cc2n([C@H]2CCOC2)c1=O [Example 11, 3-Acetyl-7-{[(3S,4R)-3-hydroxytetrahydro-2H-pyran-4-yl]amino}-4-methyl-1-[(3S)-tetrahydrofuran-3-yl]-1,6-naphthyridin-2(1H)-one] | 34 | 16 | – | –
12 | CC(=O)c1c(C)c2cnc(N[C@@H]3CCOC[C@H]3O)nc2n(C2CC(C)(C)C2)c1=O [Example 19, 6-Acetyl-8-(3,3-dimethylcyclobutyl)-2-{[(3S,4R)-3-hydroxytetrahydro-2H-pyran-4-yl]amino}-5-methylpyrido[2,3-d]pyrimidin-7(8H)-one] | 4.5 | 4.2 | – | –
13 | CC(=O)c1c(C)c2cnc(N[C@H]3CCOC[C@@H]3O)cc2n(C2CCCC2)c1=O [Example 33, 3-acetyl-1-cyclopentyl-7-{[(3R,4S)-3-hydroxytetrahydro-2H-pyran-4-yl]amino}-4-methyl-1,6-naphthyridin-2(1H)-one] | 62 | 130 | – | –
14 | CC(=O)c1c(C)c2cnc(N[C@@H]3CCOC[C@H]3O)nc2n([C@@H]2CCNC2)c1=O [Example 27] | 9.9 | 25 | – | –
15 | CC(=O)c1c(C)c2cnc(N[C@@H]3CCOC[C@H]3O)cc2n(C2CCCC2)c1=O [Example 5, 3-Acetyl-1-cyclopentyl-7-{[(3S,4R)-3-hydroxytetrahydro-2H-pyran-4-yl]amino}-4-methyl-1,6-naphthyridin-2(1H)-one] | – | – | 0.4 | 1.3
16 | CC(=O)c1c(C)c2cnc(N[C@@H]3CCOC[C@H]3O)nc2n([C@H]2CCOC2)c1=O [Example 31] | 27 | 29 | – | –
17 | CC(=O)c1c(C)c2cnc(N[C@@H]3CCOC[C@H]3O)nc2n(C2CCC2)c1=O [Example 1, 6-Acetyl-8-cyclobutyl-2-{[(3S,4R)-3-hydroxytetrahydro-2H-pyran-4-yl]amino}-5-methylpyrido[2,3-d]pyrimidin-7(8H)-one] | 1.8 | 2 | – | –
18 | CC(=O)c1c(C)c2cnc(N[C@@H]3CCOC(C)(C)[C@H]3O)nc2n(C2CCCC2)c1=O (mixture of isomers) [Example 8, 6-Acetyl-8-cyclopentyl-2-{[(3S,4R)-3-hydroxy-2,2-dimethyltetrahydro-2H-pyran-4-yl]amino}-5-methylpyrido[2,3-d]pyrimidin-7(8H)-one and 6-Acetyl-8-cyclopentyl-2-{[(3R,4S)-3-hydroxy-2,2-dimethyltetrahydro-2H-pyran-4-yl]amino}-5-methylpyrido[2,3-d]pyrimidin-7(8H)-one] | > 1200 | > 560 | – | –
19 | CC(=O)c1c(C)c2cnc(N[C@@H]3CCOC[C@H]3O)nc2n([C@H]2CCNC2)c1=O [Example 18, 6-Acetyl-2-{[(3S,4R)-3-hydroxytetrahydro-2H-pyran-4-yl]amino}-5-methyl-8-[(3S)-pyrrolidin-3-yl]pyrido[2,3-d]pyrimidin-7(8H)-one] | 9.6 | 34 | – | –
20 | CC(=O)c1c(C)c2cnc(N[C@@H]3CCOC[C@H]3O)nc2n([C@H]2CCN(C)C2)c1=O [Example 26] | 13 | 39 | – | –
21 | CC(=O)c1c(C)c2cnc(N[C@H]3CCOC[C@@H]3O)nc2n(C2CCCC2)c1=O [Example 30, 6-acetyl-8-cyclopentyl-2-{[(3R,4S)-3-hydroxytetrahydro-2H-pyran-4-yl]amino}-5-methylpyrido[2,3-d]pyrimidin-7(8H)-one] | 430 | > 570 | – | –
22 | CC(=O)c1c(C)c2cnc(N[C@@H]3CCOC[C@H]3O)nc2n([C@H]2CC[C@H](N(C)C)CC2)c1=O [Example 25] | 36 | 110 | – | –
23 | CC(=O)c1c(C)c2cnc(N[C@@H]3CCOC[C@H]3O)nc2n([C@@H]2CC[C@@H]3C[C@@H]32)c1=O (mixture of isomers) [Example 12, 6-Acetyl-8-[(1S,2R,5R)-bicyclo[3.1.0]hexan-2-yl]-2-{[(3S,4R)-3-hydroxytetrahydro-2H-pyran-4-yl]amino}-5-methylpyrido[2,3-d]pyrimidin-7(8H)-one and 6-Acetyl-8-[(1R,2S,5S)-bicyclo[3.1.0]hexan-2-yl]-2-{[(3S,4R)-3-hydroxytetrahydro-2H-pyran-4-yl]amino}-5-methylpyrido[2,3-d]pyrimidin-7(8H)-one] | 8.5 | 9.7 | – | –

From US11203594B2, “Anti-proliferative agents for treating PAH” (Pfizer Inc., priority 2019, dated 2021)
